Assay results taken from ChEMBL document CHEMBL4725402, “Discovery of thiapyran-pyrimidine derivatives as potential EGFR inhibitors” (Bioorg Med Chem, 2020).

Tests used:
A549 = assay: Antiproliferation activity against human A549 cells assessed as reduction in cell viability measured after 72 hrs by MTT assay; assay type: functional, cell-based; details: A549, 72 h
NCI-H1975 = assay: Antiproliferation activity against human NCI-H1975 cells harboring EGFR T790M/L858R mutation assessed as reduction in cell viability measured after 72 hrs by MTT assay; assay type: functional, cell-based; details: NCI-H1975, 72 h
HeLa = assay: Antiproliferation activity against human HeLa cells assessed as reduction in cell viability measured after 72 hrs by MTT assay; assay type: functional, cell-based
MCF7 = assay: Antiproliferation activity against human MCF7 cells assessed as reduction in cell viability measured after 72 hrs by MTT assay; assay type: functional, cell-based; details: MCF7, 72 h
L02 = assay: Cytotoxicity against human L02 cells assessed as reduction in cell viability measured after 72 hrs by MTT assay; assay type: cell-based; details: L02, 72 h
[1] = Selectivity index, ratio of IC50 for human L02 cells to IC50 for human A549 cells assessed as reduction in cell viability measured after 72 hrs by MTT assay; assay type: toxicity; details: L02 cells versus A549 cells, read-out: Ratio IC50

Row | Structure (SMILES) | IC50 (A549) [µM] | IC50 (NCI-H1975) [µM] | IC50 (HeLa) [µM] | IC50 (MCF7) [µM] | IC50 (L02) [µM] | selectivity ratio at 72 h [1]
1 | C=C(F)C(=O)Nc1cccc(Oc2nc(Nc3cccc(OC)c3)nc3c2CSCC3)c1 | 29.6 | 26.1 | 44.8 | > 50 | 41.2 | 1.39
2 | CCC/C=C/C(=O)Nc1cccc(Oc2nc(Nc3ccc(OC)nc3)nc3c2CSCC3)c1 | 10.8 | 17.9 | 15.3 | 26.8 | > 50 | > 4.62
3 | COc1cccc(Nc2nc3c(c(Oc4cccc(NC(=O)C=C(C)C)c4)n2)CSCC3)c1 | 19.8 | 21.9 | 19.1 | > 50 | > 50 | > 2.52
4 | C=C(F)C(=O)Nc1cccc(Oc2nc(Nc3ccn(C)n3)nc3c2CSCC3)c1 | > 50 | 36.3 | > 50 | > 50 | 47.8 | < 0.96

Now from value to compound, other results behind:

Row | IC50 (A549) [µM] | IC50 (NCI-H1975) [µM] | IC50 (HeLa) [µM] | IC50 (MCF7) [µM] | Structure (SMILES) | IC50 (L02) [µM] | selectivity ratio at 72 h [1]
5 | 11.9 | 18.9 | 12.8 | > 50 | CCC/C=C/C(=O)Nc1cccc(Oc2nc(Nc3ccc(OC)cc3)nc3c2CSCC3)c1 | > 50 | > 4.21
6 | 10.1 | 17.2 | 31.8 | 15.8 | CC/C=C/C(=O)Nc1cccc(Oc2nc(Nc3cccc(C#N)c3)nc3c2CSCC3)c1 | > 50 | > 4.95
7 | 13.1 | 13.2 | 31.2 | 31.5 | CC/C=C/C(=O)Nc1cccc(Oc2nc(Nc3ccc(OC)nc3)nc3c2CSCC3)c1 | > 50 | > 3.81
8 | 11.8 | 11.9 | 33.8 | 32 | CCC/C=C/C(=O)Nc1cccc(Oc2nc(Nc3cccc(OC)c3)nc3c2CSCC3)c1 | > 50 | > 4.23
9 | 17.2 | 10.8 | 27.2 | 24.2 | CC/C=C/C(=O)Nc1cccc(Oc2nc(Nc3cccc(OC)c3)nc3c2CSCC3)c1 | > 50 | > 2.9
